Data taken from US10857113B2, “Bezafibrate for the treatment of cancer” (Cipla Limited, priority 2016, dated 2020).

Tested on: A498 cells
Assay: In vivo animal efficacy study, subcutaneous tumor fragment xenograft
Design: species or system female athymic nude mice
Conditions: sunitinib 20 mg/kg, bezafibrate 150 mg/kg, p.o. q.d. × 21
Description: Healthy 10 female athymic nude mice were recruited for the donor cell inoculation. Animals were subcutaneously injected at flank region with 10 million A498 cells suspended in 200 μl of media and matrigel. Animals were monitored for solid tumor growth. […] Tumors were fragmented in to ˜30 mg size. […] [table] The tumor sizes were measured weekly twice from the date of tumor appearance till the end of the experiment. Tumor size was measured by digital vernier caliper (MITUTOYO) by measuring length (L=longest axis) and width (W=shortest axis). Tumor Volume (V) was calculated using formula: […] Mean tumor volume and % tumor growth inhibition (% TGI) were then calculated (SEM=standard error of mean).

For `CCN(CC)CCNC(=O)c1c(C)[nH]c(/C=C2\C(=O)Nc3ccc(F)cc32)c1C` [Sunitinib], the “Tumor Growth Inhibition” value (Day 1) was 1.47%, the “Tumor Volume, Mean” value (Day 1) was 145.40 mm^3 and the “Tumor Growth Inhibition” value (Day 6) was 47.31%. The “Tumor Volume, Mean” value (Day 6) was 174.90 mm^3, the “Tumor Growth Inhibition” value (Day 9) was 43.52% and the “Tumor Volume, Mean” value (Day 9) was 261.95 mm^3. For the same molecule, the “Tumor Growth Inhibition” value (Day 13) was 44.80%, the “Tumor Volume, Mean” value (Day 13) was 340.62 mm^3 and the “Tumor Growth Inhibition” value (Day 16) was 53.39%. For the same molecule, the “Tumor Volume, Mean” value (Day 16) was 448.05 mm^3, the “Tumor Growth Inhibition” value (Day 20) was 50.78% and the “Tumor Volume, Mean” value (Day 20) was 630.25 mm^3.
